The values below come from ChEMBL document CHEMBL5260845, “Flavone-based arylamides as potential anticancers: Design, synthesis and in vitro cell-based/cell-free evaluations” (2020).

For one test, the system named is TK-10. The experiment in a line: Antiproliferative activity against human TK-10 cells assessed as inhibition of cell growth at 10 uM by SRB assay relative to control. The class given is functional. Background: Sulforhodamine B stains cellular protein and so reports cell mass.
Another test relates to OVCAR-5. Kind of test: Antiproliferative activity against human OVCAR-5 cells assessed as inhibition of cell growth at 10 uM by SRB assay relative to control. Type of test: functional.
In a further test the test system is A498. Kind of test: Antiproliferative activity against human A498 cells assessed as inhibition of cell growth at 10 uM by SRB assay relative to control. Type of test: functional.
Test [1] has as its target Fibroblast growth factor receptor 3 (Homo sapiens) (UniProt P22607). The experiment in a line: Inhibition of FGFR3 (unknown origin) at 10 uM by biochemical hotspot kinase assay relative to control.
In test [2] the target is Hepatocyte growth factor receptor (Homo sapiens) (UniProt P08581). The experiment in a line: Inhibition of c-MET (unknown origin) at 10 uM by biochemical hotspot kinase assay relative to control.
The target in test [3] is Angiopoietin-1 receptor (Homo sapiens) (UniProt Q02763). Kind of test: Inhibition of TIE2 (unknown origin) at 10 uM by biochemical hotspot kinase assay relative to control.
Test [4] concerns the target Fibroblast growth factor receptor 2 (Homo sapiens) (UniProt P21802). Kind of test: Inhibition of FGFR2 (unknown origin) at 10 uM by biochemical hotspot kinase assay.
Test [5] deals with RAF proto-oncogene serine/threonine-protein kinase (Homo sapiens) (UniProt P04049). The experiment in a line: Inhibition of c-RAF (unknown origin) at 10 uM by biochemical hotspot kinase assay relative to control.
The target in test [6] is Receptor-interacting serine/threonine-protein kinase 2 (Homo sapiens) (UniProt O43353). The experiment in a line: Inhibition of RIPK2 (unknown origin) at 10 uM by biochemical hotspot kinase assay relative to control.
The target of test [7] is RAC-alpha serine/threonine-protein kinase (Homo sapiens) (UniProt P31749). Kind of test: Inhibition of AKT1 (unknown origin) at 10 uM by biochemical hotspot kinase assay relative to control.
For test [8], the target named is cAMP-dependent protein kinase (PKA) (Homo sapiens) (UniProt P22694+P17612+P22612). The experiment in a line: Inhibition of PKA (unknown origin) at 10 uM by biochemical hotspot kinase assay. Type of test: protein assay.
Test [9] addresses CDK1/Cyclin E (Homo sapiens) (UniProt P06493+P24864). Kind of test: Inhibition of CDK1/cyclin E (unknown origin) at 10 uM by biochemical hotspot kinase assay. The class given is protein-complex assay.
Test [10] has as its target Mitogen-activated protein kinase 15 (Homo sapiens) (UniProt Q8TD08). Kind of test: Inhibition of ERK7 (unknown origin) at 10 uM by biochemical hotspot kinase assay.
Test [11] concerns the target Mitogen-activated protein kinase kinase kinase 14 (Homo sapiens) (UniProt Q99558). The experiment in a line: Inhibition of MAP3K14 (unknown origin) at 10 uM by biochemical hotspot kinase assay relative to control.
Test [12] deals with Serine/threonine-protein kinase PAK 1 (Homo sapiens) (UniProt Q13153). Kind of test: Inhibition of PAK1 (unknown origin) at 10 uM by biochemical hotspot kinase assay.
The target of test [13] is Calcium/calmodulin-dependent protein kinase type II subunit beta (Homo sapiens) (UniProt Q13554). The experiment in a line: Inhibition of CAMK2B (unknown origin) at 10 uM by biochemical hotspot kinase assay relative to control.
The target in test [14] is Death-associated protein kinase 2 (Homo sapiens) (UniProt Q9UIK4). The experiment in a line: Inhibition of DAPK2 (unknown origin) at 10 uM by biochemical hotspot kinase assay relative to control.
In test [15] the target is Serine/threonine-protein kinase pim-1 (Homo sapiens) (UniProt P11309). Kind of test: Inhibition of PIM1 (unknown origin) at 10 uM by biochemical hotspot kinase assay relative to control.
In test [16] the target is Aurora kinase A (Homo sapiens) (UniProt O14965). Kind of test: Inhibition of Aurora A (unknown origin) at 10 uM by biochemical hotspot kinase assay.
The test system of the next test is HT-29. Kind of test: Induction of cell cycle arrest in human HT-29 cells assessed as accumulation of cells at G1 phase at 10 uM incubated for 24 hrs by PI staining based analysis (reference value: 40.3%). Type of test: functional.

Calls of active or inactive are those of the source. The calls are words filed in the database; no cut-off is given here.

Chain of Serine/threonine-protein kinase pim-1 (Homo sapiens) (P11309 whole entry, looked up): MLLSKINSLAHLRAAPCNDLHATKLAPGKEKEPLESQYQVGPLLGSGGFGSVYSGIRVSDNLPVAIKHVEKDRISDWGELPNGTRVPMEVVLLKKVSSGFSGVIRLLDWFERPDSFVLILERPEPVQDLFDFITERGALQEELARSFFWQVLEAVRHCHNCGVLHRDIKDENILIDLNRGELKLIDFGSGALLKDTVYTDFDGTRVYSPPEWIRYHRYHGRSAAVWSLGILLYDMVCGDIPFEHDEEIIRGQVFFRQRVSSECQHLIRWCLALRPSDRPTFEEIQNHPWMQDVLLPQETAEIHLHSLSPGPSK
Chain of CDK1/Cyclin E (Homo sapiens) (P06493 whole entry, looked up): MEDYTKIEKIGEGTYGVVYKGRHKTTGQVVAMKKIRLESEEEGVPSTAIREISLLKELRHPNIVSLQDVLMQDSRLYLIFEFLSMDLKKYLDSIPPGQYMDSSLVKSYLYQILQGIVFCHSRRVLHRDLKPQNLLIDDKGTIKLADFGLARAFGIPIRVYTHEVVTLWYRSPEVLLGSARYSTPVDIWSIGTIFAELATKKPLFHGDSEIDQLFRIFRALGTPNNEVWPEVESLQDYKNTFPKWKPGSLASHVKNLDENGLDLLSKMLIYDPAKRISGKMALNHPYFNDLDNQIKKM
Chain of CDK1/Cyclin E (Homo sapiens) (P24864 whole entry, looked up): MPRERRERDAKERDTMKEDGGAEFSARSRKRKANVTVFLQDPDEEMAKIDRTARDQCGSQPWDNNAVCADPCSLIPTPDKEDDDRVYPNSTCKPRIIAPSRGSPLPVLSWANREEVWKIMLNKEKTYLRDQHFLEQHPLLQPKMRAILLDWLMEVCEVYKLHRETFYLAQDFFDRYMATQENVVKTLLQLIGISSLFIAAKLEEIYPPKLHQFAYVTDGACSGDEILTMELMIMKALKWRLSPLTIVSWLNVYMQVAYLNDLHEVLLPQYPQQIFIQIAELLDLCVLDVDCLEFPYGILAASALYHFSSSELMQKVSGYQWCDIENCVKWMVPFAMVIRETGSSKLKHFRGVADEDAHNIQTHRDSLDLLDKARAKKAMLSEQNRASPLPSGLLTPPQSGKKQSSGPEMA
Chain of Aurora kinase A (Homo sapiens) (O14965 whole entry): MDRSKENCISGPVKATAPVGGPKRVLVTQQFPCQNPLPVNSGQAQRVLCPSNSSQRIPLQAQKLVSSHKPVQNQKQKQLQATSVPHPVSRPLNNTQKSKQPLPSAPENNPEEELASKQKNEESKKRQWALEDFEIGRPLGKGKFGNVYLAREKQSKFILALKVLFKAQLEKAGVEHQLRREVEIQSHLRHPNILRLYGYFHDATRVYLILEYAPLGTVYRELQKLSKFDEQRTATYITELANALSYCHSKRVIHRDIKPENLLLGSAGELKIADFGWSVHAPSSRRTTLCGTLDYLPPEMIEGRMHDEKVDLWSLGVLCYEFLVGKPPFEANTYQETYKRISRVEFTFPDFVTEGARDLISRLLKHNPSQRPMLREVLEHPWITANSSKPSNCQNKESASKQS
Chain of RAC-alpha serine/threonine-protein kinase (Homo sapiens) (P31749 whole entry): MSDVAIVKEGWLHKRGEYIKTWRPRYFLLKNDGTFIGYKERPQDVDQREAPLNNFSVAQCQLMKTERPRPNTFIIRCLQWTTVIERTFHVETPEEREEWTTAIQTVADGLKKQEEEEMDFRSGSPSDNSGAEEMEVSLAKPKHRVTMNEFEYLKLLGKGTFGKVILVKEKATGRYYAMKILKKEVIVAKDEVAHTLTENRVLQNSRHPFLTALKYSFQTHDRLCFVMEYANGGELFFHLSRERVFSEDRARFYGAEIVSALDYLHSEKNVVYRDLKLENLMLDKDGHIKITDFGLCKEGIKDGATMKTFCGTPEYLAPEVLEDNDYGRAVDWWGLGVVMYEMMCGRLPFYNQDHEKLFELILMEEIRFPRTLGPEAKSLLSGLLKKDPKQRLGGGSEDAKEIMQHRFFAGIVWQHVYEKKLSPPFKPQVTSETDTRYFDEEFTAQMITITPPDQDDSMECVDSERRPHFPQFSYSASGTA
Chain of Receptor-interacting serine/threonine-protein kinase 2 (Homo sapiens) (O43353 whole entry): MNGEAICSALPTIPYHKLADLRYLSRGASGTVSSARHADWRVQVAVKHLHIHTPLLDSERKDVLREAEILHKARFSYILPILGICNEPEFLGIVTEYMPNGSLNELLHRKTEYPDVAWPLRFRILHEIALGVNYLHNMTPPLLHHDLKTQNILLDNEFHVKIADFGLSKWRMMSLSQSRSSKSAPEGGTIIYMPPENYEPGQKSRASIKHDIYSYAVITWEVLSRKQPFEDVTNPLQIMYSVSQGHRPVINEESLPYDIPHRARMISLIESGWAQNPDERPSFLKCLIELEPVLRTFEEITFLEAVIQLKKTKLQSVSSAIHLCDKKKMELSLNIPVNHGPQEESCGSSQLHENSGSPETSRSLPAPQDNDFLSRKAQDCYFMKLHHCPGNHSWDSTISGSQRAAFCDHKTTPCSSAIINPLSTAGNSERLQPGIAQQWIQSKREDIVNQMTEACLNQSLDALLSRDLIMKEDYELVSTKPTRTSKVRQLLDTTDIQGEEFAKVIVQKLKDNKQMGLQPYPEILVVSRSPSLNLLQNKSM
Chain of Fibroblast growth factor receptor 2 (Homo sapiens) (P21802 22-821 limits assumed): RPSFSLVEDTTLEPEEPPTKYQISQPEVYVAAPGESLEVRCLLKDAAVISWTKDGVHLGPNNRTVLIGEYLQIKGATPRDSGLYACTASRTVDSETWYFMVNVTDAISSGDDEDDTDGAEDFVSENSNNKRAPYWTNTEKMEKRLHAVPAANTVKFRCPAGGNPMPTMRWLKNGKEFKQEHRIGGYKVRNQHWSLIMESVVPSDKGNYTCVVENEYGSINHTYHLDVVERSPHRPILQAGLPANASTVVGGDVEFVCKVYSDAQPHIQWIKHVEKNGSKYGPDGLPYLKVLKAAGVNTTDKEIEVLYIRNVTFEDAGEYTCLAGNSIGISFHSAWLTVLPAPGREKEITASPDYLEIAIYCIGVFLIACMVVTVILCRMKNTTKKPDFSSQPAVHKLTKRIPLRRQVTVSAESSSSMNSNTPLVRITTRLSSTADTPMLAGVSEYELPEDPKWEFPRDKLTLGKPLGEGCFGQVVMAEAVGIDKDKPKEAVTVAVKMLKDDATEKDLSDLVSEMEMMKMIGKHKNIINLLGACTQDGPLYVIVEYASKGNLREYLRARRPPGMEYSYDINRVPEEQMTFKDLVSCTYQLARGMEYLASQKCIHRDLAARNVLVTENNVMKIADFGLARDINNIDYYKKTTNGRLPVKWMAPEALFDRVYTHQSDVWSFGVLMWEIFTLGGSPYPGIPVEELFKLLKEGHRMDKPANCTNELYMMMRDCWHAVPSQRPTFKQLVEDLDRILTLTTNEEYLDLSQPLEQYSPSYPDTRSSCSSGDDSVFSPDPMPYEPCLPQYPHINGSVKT
Chain of Calcium/calmodulin-dependent protein kinase type II subunit beta (Homo sapiens) (Q13554 whole entry): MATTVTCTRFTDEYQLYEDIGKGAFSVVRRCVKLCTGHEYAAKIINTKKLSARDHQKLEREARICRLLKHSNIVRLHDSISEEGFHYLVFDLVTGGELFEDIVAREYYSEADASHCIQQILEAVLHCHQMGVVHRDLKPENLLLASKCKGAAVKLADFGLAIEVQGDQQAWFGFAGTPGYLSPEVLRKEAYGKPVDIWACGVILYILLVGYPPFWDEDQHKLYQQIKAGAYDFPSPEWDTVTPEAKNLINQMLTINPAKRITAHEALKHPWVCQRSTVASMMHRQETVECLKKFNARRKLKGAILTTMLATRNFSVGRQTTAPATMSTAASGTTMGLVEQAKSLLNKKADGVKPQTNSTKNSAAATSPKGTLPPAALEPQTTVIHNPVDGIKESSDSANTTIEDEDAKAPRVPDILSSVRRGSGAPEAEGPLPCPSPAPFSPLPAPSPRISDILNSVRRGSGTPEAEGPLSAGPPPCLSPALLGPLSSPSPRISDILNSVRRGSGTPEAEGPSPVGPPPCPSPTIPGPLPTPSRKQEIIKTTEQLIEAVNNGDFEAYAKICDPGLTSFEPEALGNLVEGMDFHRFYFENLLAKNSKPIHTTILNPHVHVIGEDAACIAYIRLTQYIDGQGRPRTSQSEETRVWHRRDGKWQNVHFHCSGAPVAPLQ
Chain of Serine/threonine-protein kinase PAK 1 (Homo sapiens) (Q13153 whole entry): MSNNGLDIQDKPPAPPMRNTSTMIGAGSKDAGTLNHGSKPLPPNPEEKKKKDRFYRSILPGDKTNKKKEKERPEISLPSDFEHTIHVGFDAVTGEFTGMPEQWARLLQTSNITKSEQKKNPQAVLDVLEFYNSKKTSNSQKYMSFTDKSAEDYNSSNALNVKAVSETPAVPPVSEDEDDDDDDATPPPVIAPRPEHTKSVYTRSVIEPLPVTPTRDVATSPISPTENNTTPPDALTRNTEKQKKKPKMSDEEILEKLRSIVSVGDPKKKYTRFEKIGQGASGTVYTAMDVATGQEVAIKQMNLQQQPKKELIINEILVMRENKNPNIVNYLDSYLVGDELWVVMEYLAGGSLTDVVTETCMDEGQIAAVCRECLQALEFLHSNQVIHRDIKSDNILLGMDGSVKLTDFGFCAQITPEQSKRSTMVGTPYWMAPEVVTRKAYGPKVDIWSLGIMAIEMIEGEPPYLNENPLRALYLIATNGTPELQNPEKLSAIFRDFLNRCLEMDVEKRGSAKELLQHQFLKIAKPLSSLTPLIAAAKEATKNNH
Chain of Death-associated protein kinase 2 (Homo sapiens) (Q9UIK4 whole entry, looked up): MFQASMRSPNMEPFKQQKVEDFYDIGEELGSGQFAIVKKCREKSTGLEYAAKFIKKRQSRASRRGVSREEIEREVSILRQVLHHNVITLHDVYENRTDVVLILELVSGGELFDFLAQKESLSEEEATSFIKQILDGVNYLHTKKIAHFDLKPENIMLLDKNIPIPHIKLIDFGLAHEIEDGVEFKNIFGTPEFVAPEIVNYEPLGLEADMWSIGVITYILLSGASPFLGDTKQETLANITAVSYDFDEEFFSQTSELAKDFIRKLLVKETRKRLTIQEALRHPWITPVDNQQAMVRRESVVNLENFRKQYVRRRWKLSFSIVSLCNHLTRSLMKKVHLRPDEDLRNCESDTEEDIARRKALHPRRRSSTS

Turning to `COc1cc2oc(-c3cccc(C(=O)Nc4ccc(Cl)cc4)c3)cc(=O)c2c(OC)c1OC`, the inhibition at 10 µM in the test on TK-10 was 61.4%.
Consider `COc1cc2oc(-c3cccc(C(=O)Nc4ccc(C)cc4)c3)cc(=O)c2c(OC)c1OC`, for which the results for the inhibition at 10 µM with OVCAR-5 and with A498 were 51.8% and 94%, respectively. Also, the inhibition in test [1] came to 0.26%; in test [2], 27.1%; in test [3] it was 0.46%; in test [5], 3.26%; in test [6], 36.1%; in test [7] it was 2.36%. Further, the inhibition is 20.9% in test [11], 1.99% in [13], 0.74% in test [14] and 6.26% in test [15]. Also, the inhibition result in test [4], in [8], in test [9], in [10], in [12] and in [16] was “inactive” throughout. Also, in the test with HT-29, the Activity was determined as 64%.

For orientation: inhibition means the drop in the measured response relative to a control, in per cent.
